The NIST ThermoML archive (doi:10.1016/j.jct.2004.12.014)
± gives the expanded uncertainty stated by the source.

What was measured:
[1] = xn = mol fraction of the nth substance listed; details: 318.15 K, 101 kPa, Liquid
[2] = excess molar enthalpy (molar enthalpy of mixing); xn = mol fraction of the nth substance listed; details: 318.15 K, 101 kPa, Liquid

CCCCCCCCCCCCC [tridecane] + CCOC(=O)CC
Details | excess molar enthalpy [kcal/mol] | excess molar volume [m3/mol]
[1], x2 = 0.0553 | – | 2.18e-07 ± 1.7e-08
[1], x2 = 0.1314 | – | 4.88e-07 ± 1.8e-08
[1], x2 = 0.2286 | – | 7.67e-07 ± 1.9e-08
[1], x2 = 0.3064 | – | 9.41e-07 ± 2e-08
[1], x2 = 0.3982 | – | 1.105e-06 ± 2.1e-08
[1], x2 = 0.4702 | – | 1.178e-06 ± 2.1e-08
[1], x2 = 0.5353 | – | 1.203e-06 ± 2.1e-08
[1], x2 = 0.6003 | – | 1.177e-06 ± 2.1e-08
[1], x2 = 0.6545 | – | 1.134e-06 ± 2.1e-08
[1], x2 = 0.7057 | – | 1.072e-06 ± 2e-08
[1], x2 = 0.7518 | – | 9.93e-07 ± 2e-08
[1], x2 = 0.7964 | – | 8.81e-07 ± 2e-08
[1], x2 = 0.8358 | – | 7.55e-07 ± 1.9e-08
[1], x2 = 0.8729 | – | 6.38e-07 ± 1.8e-08
[1], x2 = 0.9066 | – | 4.97e-07 ± 1.8e-08
[1], x2 = 0.9396 | – | 3.51e-07 ± 1.7e-08
[1], x2 = 0.9702 | – | 2.08e-07 ± 1.6e-08
[2], x2 = 0.0944 | 0.112 ± 0.00213 | –
[2], x2 = 0.189 | 0.201 ± 0.00359 | –
[2], x2 = 0.282 | 0.274 ± 0.00454 | –
[2], x2 = 0.366 | 0.326 ± 0.0055 | –
[2], x2 = 0.4354 | 0.355 ± 0.00598 | –
[2], x2 = 0.4882 | 0.367 ± 0.00598 | –
[2], x2 = 0.5339 | 0.372 ± 0.00621 | –
[2], x2 = 0.5841 | 0.371 ± 0.00621 | –
[2], x2 = 0.6332 | 0.361 ± 0.00598 | –
[2], x2 = 0.6564 | 0.351 ± 0.00574 | –
[2], x2 = 0.6775 | 0.343 ± 0.00574 | –
[2], x2 = 0.6925 | 0.335 ± 0.0055 | –
[2], x2 = 0.7364 | 0.306 ± 0.00502 | –
[2], x2 = 0.7802 | 0.271 ± 0.00454 | –
[2], x2 = 0.8254 | 0.228 ± 0.00382 | –
[2], x2 = 0.8702 | 0.181 ± 0.00311 | –
[2], x2 = 0.9163 | 0.127 ± 0.00239 | –
[2], x2 = 0.9613 | 0.0636 ± 0.00146 | –

CCCCCCCCCCC [undecane] + CCCOC(=O)CC
Details | excess molar enthalpy [kcal/mol] | excess molar volume [m3/mol]
[1], x2 = 0.0413 | – | 1.53e-07 ± 1.6e-08
[1], x2 = 0.0923 | – | 3.2e-07 ± 1.7e-08
[1], x2 = 0.1761 | – | 5.43e-07 ± 1.8e-08
[1], x2 = 0.2561 | – | 7.24e-07 ± 1.9e-08
[1], x2 = 0.3307 | – | 8.39e-07 ± 1.9e-08
[1], x2 = 0.3986 | – | 9.06e-07 ± 2e-08
[1], x2 = 0.4638 | – | 9.37e-07 ± 2e-08
[1], x2 = 0.5278 | – | 9.47e-07 ± 2e-08
[1], x2 = 0.587 | – | 9.43e-07 ± 2e-08
[1], x2 = 0.6412 | – | 8.99e-07 ± 2e-08
[1], x2 = 0.6944 | – | 8.36e-07 ± 1.9e-08
[1], x2 = 0.744 | – | 7.6e-07 ± 1.9e-08
[1], x2 = 0.7913 | – | 6.62e-07 ± 1.9e-08
[1], x2 = 0.8364 | – | 5.52e-07 ± 1.8e-08
[1], x2 = 0.8799 | – | 4.45e-07 ± 1.8e-08
[1], x2 = 0.9196 | – | 2.93e-07 ± 1.7e-08
[1], x2 = 0.9603 | – | 1.75e-07 ± 1.6e-08
[2], x2 = 0.0636 | 0.0667 ± 0.00146 | –
[2], x2 = 0.1368 | 0.127 ± 0.00237 | –
[2], x2 = 0.2052 | 0.179 ± 0.00311 | –
[2], x2 = 0.2811 | 0.228 ± 0.00382 | –
[2], x2 = 0.355 | 0.26 ± 0.0043 | –
[2], x2 = 0.4208 | 0.276 ± 0.00454 | –
[2], x2 = 0.4796 | 0.283 ± 0.00478 | –
[2], x2 = 0.5347 | 0.283 ± 0.00478 | –
[2], x2 = 0.5876 | 0.276 ± 0.00454 | –
[2], x2 = 0.6318 | 0.264 ± 0.00454 | –
[2], x2 = 0.6804 | 0.246 ± 0.0043 | –
[2], x2 = 0.7305 | 0.219 ± 0.00382 | –
[2], x2 = 0.7842 | 0.188 ± 0.00335 | –
[2], x2 = 0.8388 | 0.149 ± 0.00263 | –
[2], x2 = 0.8946 | 0.104 ± 0.00201 | –
[2], x2 = 0.9488 | 0.0549 ± 0.00127 | –

CCCCCCCCCCC [undecane] + CCOC(=O)CC
Details | excess molar enthalpy [kcal/mol] | excess molar volume [m3/mol]
[1], x2 = 0.0488 | – | 2.1e-07 ± 1.6e-08
[1], x2 = 0.1093 | – | 4.32e-07 ± 1.8e-08
[1], x2 = 0.1996 | – | 6.94e-07 ± 1.9e-08
[1], x2 = 0.2885 | – | 9.21e-07 ± 2e-08
[1], x2 = 0.3652 | – | 1.049e-06 ± 2e-08
[1], x2 = 0.4355 | – | 1.121e-06 ± 2.1e-08
[1], x2 = 0.5015 | – | 1.154e-06 ± 2.1e-08
[1], x2 = 0.5629 | – | 1.147e-06 ± 2.1e-08
[1], x2 = 0.621 | – | 1.119e-06 ± 2.1e-08
[1], x2 = 0.6752 | – | 1.071e-06 ± 2e-08
[1], x2 = 0.7242 | – | 9.82e-07 ± 2e-08
[1], x2 = 0.7714 | – | 8.93e-07 ± 2e-08
[1], x2 = 0.816 | – | 7.79e-07 ± 1.9e-08
[1], x2 = 0.8558 | – | 6.55e-07 ± 1.9e-08
[1], x2 = 0.895 | – | 5.1e-07 ± 1.8e-08
[1], x2 = 0.9301 | – | 3.49e-07 ± 1.7e-08
[1], x2 = 0.9671 | – | 2.01e-07 ± 1.6e-08
[2], x2 = 0.0755 | 0.0914 ± 0.00182 | –
[2], x2 = 0.1612 | 0.168 ± 0.00311 | –
[2], x2 = 0.2482 | 0.238 ± 0.00406 | –
[2], x2 = 0.3331 | 0.29 ± 0.00478 | –
[2], x2 = 0.4028 | 0.32 ± 0.00526 | –
[2], x2 = 0.4629 | 0.336 ± 0.0055 | –
[2], x2 = 0.5094 | 0.341 ± 0.00574 | –
[2], x2 = 0.5483 | 0.34 ± 0.00574 | –
[2], x2 = 0.5806 | 0.336 ± 0.0055 | –
[2], x2 = 0.6255 | 0.325 ± 0.0055 | –
[2], x2 = 0.6622 | 0.311 ± 0.00526 | –
[2], x2 = 0.7018 | 0.292 ± 0.00502 | –
[2], x2 = 0.7511 | 0.261 ± 0.0043 | –
[2], x2 = 0.7996 | 0.225 ± 0.00382 | –
[2], x2 = 0.8514 | 0.177 ± 0.00311 | –
[2], x2 = 0.9026 | 0.125 ± 0.00234 | –
[2], x2 = 0.9521 | 0.0667 ± 0.00148 | –
